Here are results for 15 compounds from patent publication US20180303807A1, “ANDROGEN RECEPTOR LIGANDS” (DUKE UNIVERSITY, priority 2015, published 2018).

Numbering of substitutions follows the chain as printed. Where only a bound is given, the exact number is not on record here.

The target of experiment [1] is T1, AR (Homo sapiens, UniProt P10275).
T1 construct: expressed in transfected cells; host or cells: CV1 cells
T1 sequence (P10275 1-920): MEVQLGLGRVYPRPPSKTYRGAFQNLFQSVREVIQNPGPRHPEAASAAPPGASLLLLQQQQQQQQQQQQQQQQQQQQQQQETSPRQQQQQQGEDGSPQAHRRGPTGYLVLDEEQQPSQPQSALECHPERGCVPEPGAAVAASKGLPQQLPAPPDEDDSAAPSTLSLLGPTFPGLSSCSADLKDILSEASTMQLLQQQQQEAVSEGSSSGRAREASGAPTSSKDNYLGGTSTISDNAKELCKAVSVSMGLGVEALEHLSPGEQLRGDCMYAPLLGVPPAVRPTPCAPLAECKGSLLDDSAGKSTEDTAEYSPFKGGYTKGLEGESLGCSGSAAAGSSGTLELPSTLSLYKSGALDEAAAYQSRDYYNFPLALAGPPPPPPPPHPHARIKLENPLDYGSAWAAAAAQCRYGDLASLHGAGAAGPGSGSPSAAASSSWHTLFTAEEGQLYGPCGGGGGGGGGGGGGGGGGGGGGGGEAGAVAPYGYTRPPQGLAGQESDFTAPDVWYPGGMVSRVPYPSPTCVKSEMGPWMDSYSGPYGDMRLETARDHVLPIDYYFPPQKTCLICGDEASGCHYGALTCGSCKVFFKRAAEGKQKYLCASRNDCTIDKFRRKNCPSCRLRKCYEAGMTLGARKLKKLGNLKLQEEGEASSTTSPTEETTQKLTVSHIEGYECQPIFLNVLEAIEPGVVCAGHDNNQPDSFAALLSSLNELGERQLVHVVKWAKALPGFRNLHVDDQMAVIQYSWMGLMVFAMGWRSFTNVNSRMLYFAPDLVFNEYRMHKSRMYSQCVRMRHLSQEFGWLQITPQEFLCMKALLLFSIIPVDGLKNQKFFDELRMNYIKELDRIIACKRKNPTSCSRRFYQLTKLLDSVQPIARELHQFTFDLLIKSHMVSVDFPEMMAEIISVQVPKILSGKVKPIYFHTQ
Nature of the experiment: Reporter gene assay, AR transcriptional (MMTV-Luc) in CV1 cells. The class given is cell-based. Conditions: pcDNA-AR + MMTV-Luc, 0.1 nM R1881 plus test compound, 24 hrs, read-out: B1 = AR transcriptional IC50 (μM) in CV1 cells. Here is the method: Reporter Gene Assay (IC50 determination, Table 2, B1-B3). CV1 cells were seeded into 96-well cell culture plates and transfected with Lipofectin. For AR transcriptional assays, the DNA mixture consisted of pcDNA-AR, MMTV-Luc (androgen responsive reporter gene), and Renilla-Luc (for assessing transfection efficiency and toxicity). Following overnight incubation, cells were induced with hormone (0.1 nM R1881 (synthetic AR agonist) plus increasing concentrations of test compound) for 24 hrs. Cells were lysed and luciferase activity was quantified using Dual Luciferase Reagent (DLR). IC50 determination was assessed using GraphPad Prism software.
(A reporter such as luciferase makes a cellular process visible.)

The target of experiment [2] is T2, AR (Homo sapiens, UniProt P10275, T878A).
T2 construct: endogenous in cells; host or cells: LNCaP cells
T2 sequence (P10275 1-920 T878A): T1 sequence (P10275 1-920) with T878A
The experiment can be described thus: In Cell Western AR degradation assay in LNCaP cells. Conditions: 18 hrs, greater than 50% degradation at 10 μM (method says 20 μM). The class given is cell-based. Here is the method: In Cell Western (AR degradation Assay, Table 2, B10). LNCaP cells were plated in 96-well clear bottom black plates (20K cells/well) in RPMI supplemented with 8% CFS. Following 48 hr incubation, cells were treated with hormone (20 μM test compound) for 18 hrs. Cells were fixed with formaldehyde (3.7%) and permeabilized using PBS (0.1% TRITON X-100). Cells were incubated with anti-AR antibody (N20, 1:2000), washed with PBS (0.1% Tween), and stained with 2nd antibody (Biotium CF770 goat anti-rabbit, 1:2000). AR protein expression was assessed using the LI-COR Odyssey imaging system. DRAQ5 (DNA stain, 1:10,000, Thermo Scientific) was used to normalize AR protein expression.
For B4-B7, scoring system is based on the relative AR target gene agonist/antagonist activity of test compounds when compared to benchmark compounds enzalutamide or bicalutamide. […] The lack of agonist activity is desirable for therapies intended to treat CRPC. For B4 and B6, a score of 1 indicates less agonism (highly desired activity) than benchmark compound enzalutamide, a score of 2 indicates equal agonism to enzalutamide (desirable), a score of 3 indicates agonism between enzalutamide and bicalutamide (less desirable activity), a score of 4 indicates equal agonism to bicalutamide (liability), and a score of 5 indicates higher agonism than bicalutamide (liability). For B5 and B7 a score of 1 indicates higher antagonist efficacy (highly desired activity) than benchmark compound enzalutamide, a score of 2 indicates equal antagonist efficacy to enzalutamide (desirable), a score of 3 indicates antagonist efficacy between enzalutamide and bicalutamide (less desirable activity), a score of 4 indicates antagonist efficacy equal to bicalutamide (liability), and a score of 5 indicates antagonist efficacy worse than bicalutamide (liability) For B9, Compounds that degrade AR (greater than 50% degradation at 10 μM) are indicated.

Regarding `CC1(C)CC(=O)C2=C(C1)Nc1ccc3nccnc3c1C2c1ccc(Br)s1` (racemic) [Compound A100, (±)-12-(5-bromothiophen-2-yl)-9,9-dimethyl-8,9,10,12-tetrahydropyrazino[2,3-a]acridin-11(7H)-one], on AR [1], the IC50 came out at 0.5 µM. At AR [2], the “B9 = AR degradation in LNCaP cells (In-Cell Western)” value (“B9 = AR degradation in LNCaP cells” below) is on record as “Degrader (Compounds that degrade AR (greater than 50% degradation at 10 μM) are indicated)”.

Turning to `CC1(C)CC(=O)C2=C(C1)Nc1ccc3ncncc3c1C2c1ccc(Br)s1` (racemic) [Compound A102, (±)-12-(5-bromothiophen-2-yl)-9,9-dimethyl-8,9,10,12-tetrahydropyrimido[5,4-a]acridin-11(7H)-one], on AR [1], the half-maximal inhibitory concentration (IC50) is 0.4 µM. Further, the “B9 = AR degradation in LNCaP cells” value on AR [2] was “Degrader (Compounds that degrade AR (greater than 50% degradation at 10 μM) are indicated)”.

As to `CC1(C)CC(=O)C2=C(C1)Nc1ccc3nccnc3c1C2c1ccc(F)c(F)c1` (racemic) [Compound A83, (±)-12-(3,4-difluorophenyl)-9,9-dimethyl-8,9,10,12-tetrahydropyrazino[2,3-a]acridin-11(7H)-one], the half-inhibitory concentration (IC50) at AR [1] worked out at 7.4 µM. Besides, on AR [2], the “B9 = AR degradation in LNCaP cells” value is “Degrader (Compounds that degrade AR (greater than 50% degradation at 10 μM) are indicated)”.

Turning to `CC1(C)CC(=O)C2=C(C1)Nc1ccc3ncccc3c1C2c1ccc(C#N)cc1` (stereo not drawn) [Compound A55], the IC50 at AR [1] was more than 10 µM. For the same compound, the “B9 = AR degradation in LNCaP cells” value at AR [2] is given as “Degrader (Compounds that degrade AR (greater than 50% degradation at 10 μM) are indicated)”.

On to `CC1(C)CC(=O)C2=C(C1)Nc1ccc3ncccc3c1C2c1ccc(Cl)nc1` (stereo not drawn) [Compound A71], for which the IC50 on AR [1] was 6.9 µM. The “B9 = AR degradation in LNCaP cells” value at AR [2] was “Degrader (Compounds that degrade AR (greater than 50% degradation at 10 μM) are indicated)”.

As for `O=C1C2=C(C(=O)c3ccccc31)C(c1ccc(F)c(F)c1)c1c(ccc3ncccc13)N2` (racemic) [Compound A85, (±)-14-(3,4-difluorophenyl)naphtho[2,3-b][4,7]phenanthroline-8,13(7H,14H)-dione], the half-inhibitory concentration (IC50) at AR [1] was more than 10 µM. Besides, the “B9 = AR degradation in LNCaP cells” value at AR [2] is on record as “Degrader (Compounds that degrade AR (greater than 50% degradation at 10 μM) are indicated)”.

`CC1(C)CC(=O)C2=C(C1)Nc1ccc3ncccc3c1C2c1ccccn1` (stereo not drawn) [Compound A57, 9,9-dimethyl-12-(pyridin-2-yl)-8,9,10,12-tetrahydrobenzo[b][4,7]phenanthrolin-11(7H)-one]: the concentration for half-maximal inhibition (IC50) at AR [1] was more than 10 µM. Further, at AR [2], the “B9 = AR degradation in LNCaP cells” value was “Degrader (Compounds that degrade AR (greater than 50% degradation at 10 μM) are indicated)”.

For `CC1(C)CC(=O)C2=C(C1)Nc1ccc3ncncc3c1C2c1ccc(Cl)s1` (racemic) [Compound A101, (±)-12-(5-chlorothiophen-2-yl)-9,9-dimethyl-8,9,10,12-tetrahydropyrimido[5,4-a]acridin-11(7H)-one], the IC50 at AR [1] was 0.8 µM. Besides, the “B9 = AR degradation in LNCaP cells” value on AR [2] is recorded as “Degrader (Compounds that degrade AR (greater than 50% degradation at 10 μM) are indicated)”.

In the case of `CC1(C)CC(=O)C2=C(C1)Nc1cc(N3CCCC3)ccc1C2c1ccc(F)c(F)c1` (racemic) [Compound A90, (±)-9-(3,4-difluorophenyl)-3,3-dimethyl-6-(pyrrolidin-1-yl)-3,4,9,10-tetrahydroacridin-1(2H)-one], at AR [1], the half-inhibitory concentration (IC50) was more than 10 µM. The “B9 = AR degradation in LNCaP cells” value at AR [2] is “Degrader (Compounds that degrade AR (greater than 50% degradation at 10 μM) are indicated)”.

Consider `Cn1ncc2ccc3c(c21)C(c1ccc(Cl)s1)C1=C(CC(C)(C)CC1=O)N3` (stereo not drawn) [Compound A109], for which the IC50 on AR [1] came to 4.7 µM. The “B9 = AR degradation in LNCaP cells” value on AR [2] is “Degrader (Compounds that degrade AR (greater than 50% degradation at 10 μM) are indicated)”.

Take `CC1(C)CC(=O)C2=C(C1)Nc1ccc3ncccc3c1C2c1cccc(C(F)(F)F)c1` (stereo not drawn) [Compound A70]: at AR [1], the 50% inhibitory concentration (IC50) is more than 10 µM. In addition, on AR [2], the “B9 = AR degradation in LNCaP cells” value was “Degrader (Compounds that degrade AR (greater than 50% degradation at 10 μM) are indicated)”.

As for `CC1(C)CC(=O)C2=C(C1)Nc1ccc3cnccc3c1C2c1ccc(F)c(F)c1` (racemic) [Compound A91, (±)-12-(3,4-difluorophenyl)-9,9-dimethyl-8,9,10,12-tetrahydrobenzo[j][3,7]phenanthrolin-11(7H)-one], the 50% inhibitory concentration (IC50) at AR [1] was determined as 1.4 µM. For the same compound, the “B9 = AR degradation in LNCaP cells” value at AR [2] is listed as “Degrader (Compounds that degrade AR (greater than 50% degradation at 10 μM) are indicated)”.

For `CC1(C)CC(=O)C2=C(C1)Nc1ccc3nccnc3c1C2c1cc2ccccc2s1` (racemic) [Compound A93, (±)-12-(benzo[b]thiophen-2-yl)-9,9-dimethyl-8,9,10,12-tetrahydropyrazino[2,3-a]acridin-11(7H)-one], the IC50 at AR [1] turned out to be 1.2 µM. Further, at AR [2], the “B9 = AR degradation in LNCaP cells” value was “Degrader (Compounds that degrade AR (greater than 50% degradation at 10 μM) are indicated)”.

Take `Cn1ncc2ccc3c(c21)C(c1ccc(Br)s1)C1=C(CC(C)(C)CC1=O)N3` (stereo not drawn) [Compound A113]: at AR [1], the IC50 stood at 5.1 µM. For the same compound, the “B9 = AR degradation in LNCaP cells” value at AR [2] is on record as “Degrader (Compounds that degrade AR (greater than 50% degradation at 10 μM) are indicated)”.

For `CC1(C)CC(=O)C2=C(C1)Nc1ccc3ncccc3c1C2c1ccc(C#N)c(F)c1` (stereo not drawn) [Compound A72], on AR [1], the IC50 is 7.7 µM. Moreover, the “B9 = AR degradation in LNCaP cells” value at AR [2] is recorded as “Degrader (Compounds that degrade AR (greater than 50% degradation at 10 μM) are indicated)”.

One may read the IC50 as the concentration that inhibits the measured activity by half.
